# Results as given in US20210222225A1, “Medium for Disk Diffusion Method to Evaluate Antibiotic Sensitivity” (priority 2018, published 2021).
# How the values were obtained:
# PAE P1624_R = experiment: Colistin disk diffusion, guanidine hydrochloride medium, P1624_R; assay type: cell-based, Pseudomonas aeruginosa; conditions: 30% agar
# Protocol: (§1) A concentration of agar particles (BD Diagnostic, Sparks, Md., USA) in Mueller-Hinton broth medium (BD Diagnostic) was adjusted to 5.1 g/L, which is 30% of 17 g/L, and guanidine hydrochloride was added to a concentration of 500 μg/ml, 50 μg/ml, or 5 μg/ml. Then, solidification was performed. On a surface of each medium thus prepared was evenly inoculated each of colistin-susceptible (S) or -resistant (R) Acinetobacter baumannii (ABA) strain, colistin-susceptible (S) or -resistant (R) Klebsiella pnemoniae (KPN) strain, and colistin-susceptible (S) or -resistant (R) Pseudomonas aeruginosa (PAE) strain, and a colistin disk was placed thereon. Then, pictures of a growth inhibition zone, which had been formed clear, around the disk were taken for each strain, and the results are illustrated in FIGS. 8 to 10.
# [1] = system: colistin-susceptible (S) Acinetobacter calcoaceticus-baumannii complex (ACB) strain; experiment: Colistin disk diffusion on modified Mueller-Hinton agar, ACB-S; assay type: cell-based
# Protocol: (§2) To each MHA thus modified was added protamine (Sigma-Aldrich, St Louis, Mo., USA) at a concentration of 100 μg/ml, and solidification was performed. Then, on a surface of the medium was evenly inoculated each of colistin-susceptible (S) or -resistant (R) Acinetobacter calcoaceticus-baumannii complex (ACB) strain, Pseudomonas aeruginosa ATCC27853 strain, Escherichia coli ATCC25922 strain, and mcr-1-harboring Enterobacter aerogenes strain, and a colistin disk was placed thereon. Subsequently, a diameter of a growth inhibition zone (colistin inhibition zone), which had been formed clear by diffusion of colistin to the agar around the colistin disk, was measured.
# (§3) As in Example 1, a concentration of agar particles (BD Diagnostic, Sparks, Md., USA) in Mueller-Hinton broth medium (BD Diagnostic) was adjusted to 17 g/L or 5.1 g/L that is 30% of 17 g/L. To select a concentration of protamine, which can enhance diffusion of colistin from a disk without interfering with bacterial growth, while using the protamine at various concentrations, protamine (Sigma-Aldrich, St Louis, Mo., USA) was added to the medium at concentrations of 1 mg/ml, 700 μg/ml, 400 μg/ml, 300 μg/ml, 200 μg/ml, 150 μg/ml, 100 μg/ml, and 50 μg/ml. Each medium thus modified was solidified. Then, on a surface of each medium was evenly inoculated each of colistin-susceptible (S) or -resistant (R) Acinetobacter calcoaceticus-baumannii complex (ACB) strain, Pseudomonas aeruginosa ATCC27853 strain, and mcr-1-harboring Enterobacter aerogenes strain, and a colistin disk was placed thereon. Then, it was determined whether each strain was grown, and a diameter of a growth inhibition zone, which had been formed around the disk, was measured.
# KPN K3070_S = experiment: Colistin disk diffusion, guanidine hydrochloride medium, K3070_S; assay type: cell-based, Klebsiella pnemoniae; conditions: 30% agar
# Protocol: as §1
# [2] = system: mcr-1-harboring Enterobacter aerogenes strain; experiment: Colistin disk diffusion on modified Mueller-Hinton agar, mcr-1; assay type: cell-based
# Protocol: as §2, §3
# [3] = guanidine hydrochloride 5 μg/ml
# [4] = guanidine hydrochloride 50 μg/ml
# [5] = guanidine hydrochloride 500 μg/ml
# [6] = 30% agar, protamine 1,000 μg/ml
# [7] = 100% agar, protamine 1,000 μg/ml
substance,measurement,setting,value
colistin,Disk diffusion (mm),PAE P1624_R; [3],12 mm
same,Disk diffusion (mm),PAE P1624_R; [4],12 mm
same,Disk diffusion (mm),PAE P1624_R; [5],12 mm
same,Disk diffusion (mm),"[1]; 30% agar, protamine 50 μg/ml",14 mm
same,Diameter (mm) of colistin inhibition zone,"[1]; 30% agar, protamine 100 μg/ml",16 mm
same,Disk diffusion (mm),"[1]; 30% agar, protamine 100 μg/ml",15 mm
same,Disk diffusion (mm),"[1]; 30% agar, protamine 150 μg/ml",15 mm
same,Disk diffusion (mm),"[1]; 30% agar, protamine 200 μg/ml",14 mm
same,Disk diffusion (mm),"[1]; 30% agar, protamine 300 μg/ml",6 mm
same,Disk diffusion (mm),"[1]; 30% agar, protamine 400 μg/ml",6 mm
same,Disk diffusion (mm),"[1]; 30% agar, protamine 700 μg/ml",6 mm
same,Disk diffusion (mm),[1]; [6],6 mm
same,Diameter (mm) of colistin inhibition zone,"[1]; 40% agar, protamine 100 μg/ml",15 mm
same,Diameter (mm) of colistin inhibition zone,"[1]; 50% agar, protamine 100 μg/ml",13 mm
same,Diameter (mm) of colistin inhibition zone,"[1]; 60% agar, protamine 100 μg/ml",13 mm
same,Diameter (mm) of colistin inhibition zone,"[1]; 70% agar, protamine 100 μg/ml",13 mm
same,Diameter (mm) of colistin inhibition zone,"[1]; 80% agar, protamine 100 μg/ml",12 mm
same,Diameter (mm) of colistin inhibition zone,"[1]; 90% agar, protamine 100 μg/ml",12 mm
same,Disk diffusion (mm),"[1]; 100% agar, protamine 50 μg/ml",13 mm
same,Diameter (mm) of colistin inhibition zone,"[1]; 100% agar, protamine 100 μg/ml",12 mm
same,Disk diffusion (mm),"[1]; 100% agar, protamine 100 μg/ml",12 mm
same,Disk diffusion (mm),"[1]; 100% agar, protamine 150 μg/ml",13 mm
same,Disk diffusion (mm),"[1]; 100% agar, protamine 200 μg/ml",12 mm
same,Disk diffusion (mm),"[1]; 100% agar, protamine 300 μg/ml",13 mm
same,Disk diffusion (mm),"[1]; 100% agar, protamine 400 μg/ml",14 mm
same,Disk diffusion (mm),"[1]; 100% agar, protamine 700 μg/ml",10 mm
same,Disk diffusion (mm),[1]; [7],6 mm
same,Disk diffusion (mm),KPN K3070_S; [3],17 mm
same,Disk diffusion (mm),KPN K3070_S; [4],16 mm
same,Disk diffusion (mm),KPN K3070_S; [5],17 mm
same,Disk diffusion (mm),"[2]; 30% agar, protamine 50 μg/ml",9 mm
same,Diameter (mm) of colistin inhibition zone,"[2]; 30% agar, protamine 100 μg/ml",11 mm
same,Disk diffusion (mm),"[2]; 30% agar, protamine 100 μg/ml",9 mm
same,Disk diffusion (mm),"[2]; 30% agar, protamine 150 μg/ml",9 mm
same,Disk diffusion (mm),"[2]; 30% agar, protamine 200 μg/ml",8 mm
same,Disk diffusion (mm),"[2]; 30% agar, protamine 300 μg/ml",6 mm
same,Disk diffusion (mm),"[2]; 30% agar, protamine 400 μg/ml",6 mm
same,Disk diffusion (mm),"[2]; 30% agar, protamine 700 μg/ml",6 mm
same,Disk diffusion (mm),[2]; [6],6 mm
same,Diameter (mm) of colistin inhibition zone,"[2]; 40% agar, protamine 100 μg/ml",10 mm
same,Diameter (mm) of colistin inhibition zone,"[2]; 50% agar, protamine 100 μg/ml",11 mm
same,Diameter (mm) of colistin inhibition zone,"[2]; 60% agar, protamine 100 μg/ml",10 mm
same,Diameter (mm) of colistin inhibition zone,"[2]; 70% agar, protamine 100 μg/ml",10 mm
same,Diameter (mm) of colistin inhibition zone,"[2]; 80% agar, protamine 100 μg/ml",9 mm
same,Diameter (mm) of colistin inhibition zone,"[2]; 90% agar, protamine 100 μg/ml",10 mm
same,Disk diffusion (mm),"[2]; 100% agar, protamine 50 μg/ml",9 mm
same,Diameter (mm) of colistin inhibition zone,"[2]; 100% agar, protamine 100 μg/ml",10 mm
same,Disk diffusion (mm),"[2]; 100% agar, protamine 100 μg/ml",9 mm
same,Disk diffusion (mm),"[2]; 100% agar, protamine 150 μg/ml",10 mm
same,Disk diffusion (mm),"[2]; 100% agar, protamine 200 μg/ml",9 mm
same,Disk diffusion (mm),"[2]; 100% agar, protamine 300 μg/ml",10 mm
same,Disk diffusion (mm),"[2]; 100% agar, protamine 400 μg/ml",8 mm
same,Disk diffusion (mm),"[2]; 100% agar, protamine 700 μg/ml",10 mm
same,Disk diffusion (mm),[2]; [7],6 mm
